Measured values: patent US20250299772A1, “METHOD FOR GENERATION OF CHEMICAL DERIVATIVES AGAINST TARGET PROTEIN TO BUILD AI DRUG PLATFORM” (SYNTEKABIO, INC., priority 2024, published 2025)

Molecular target: protein A (a kinase)
Assay: Inhibition of protein A kinase activity (33P-ATP peptide phosphorylation, filter, scintillation counting)
Assay type: biochemical
Details: for IC50: Table 2, 10 μM [gamma-33P]-ATP, 10 μM peptide substrate, 40 minutes at room temperature; for pIC50 (experimental): Table 3, given with negative sign
Experimental: The hit compound derivatives synthesized as real compounds through Example 3 were evaluated for ability to inhibit the activity of protein A (a kinase).
Specifically, […] of protein A was incubated along with 8 mM MOPS (pH 7.0), 0.2 mM EDTA, 10 mM magnesium acetate, 10 μM [gamma-33P]-ATP, and 10 μM […], which is a phosphorylation target peptide. After incubation at room temperature for 40 minutes, the reaction was terminated by adding phosphoric acid to a final concentration of 0.5%. The reaction mixture was spotted onto a filter, then washed four times with 0.425% phosphoric acid for 4 minutes each. After washing once with methanol, the sample was dried and measured for radioactivity (scintillation counting) to assess phosphorylation (i.e., […](p)EDEEE peptide detection).

Row | SMILES | IC50 [nM] | pIC50 (experimental)
1 | O=C(Nc1cc(-c2cccc(NS(=O)(=O)N3CCOCC3)c2)n[nH]1)c1cc2nccnc2s1 [Compound D0025] | 62 | 7.21
2 | C#CC(=O)Nc1cccc(-c2cc(NC(=O)c3ccc4nonc4c3)[nH]n2)c1 [Compound D0054] | 26 | 7.58
3 | CC(C)(C)C(=O)Nc1cccc(-c2cc(NC(=O)c3nc4cccnc4s3)[nH]n2)c1 [Compound D0065] | 119 | 6.92
4 | CC#CC(=O)Nc1cccc(-c2cc(NC(=O)c3cc4cc(OC)ccc4o3)[nH]n2)c1 [Compound D0069] | 30 | 7.52
5 | O=C(Nc1cc(-c2cccc(NS(=O)(=O)N3CCOCC3)c2)n[nH]1)c1cccc2ncsc12 [Compound D0083] | 129 | 6.89
6 | C#CC(=O)Nc1cccc(-c2cc(NC(=O)c3cc4nccnc4s3)[nH]n2)c1 [Compound D0101] | 13 | 7.89
7 | C#CC(=O)Nc1cccc(-c2cc(NC(=O)c3cc4ccc(O)cc4o3)[nH]n2)c1 [Compound D0135] | 63 | 7.2
8 | C#CC(=O)Nc1cccc(-c2cc(NC(=O)c3cc4ncc(O)nc4s3)[nH]n2)c1 [Compound D0137] | 40 | 7.4
9 | C#CC(=O)Nc1cccc(-c2cc(NC(=O)c3cc4ccc(O)cc4o3)[nH]n2)c1 [Compound D0139] | 22 | 7.66
10 | C#CC(=O)Nc1cccc(-c2cc(NC(=O)c3cc4c(s3)CCOC4)[nH]n2)c1 [Compound D0157] | 4 | 8.4
11 | CC#CC(=O)Nc1cccc(-c2cc(NC(=O)c3cc4c(s3)CCOC4)[nH]n2)c1 [Compound D1008] | 19 | 7.72
12 | CC#CC(=O)Nc1cccc(-c2cc(NC(=O)c3cc4c(s3)CCNC4)[nH]n2)c1 [Compound D1010] | 31 | 7.51
13 | CC#CC(=O)Nc1cccc(-c2cc(NC(=O)c3cc4c(s3)CC(=O)NC4)[nH]n2)c1 [Compound D1011] | 8 | 8.1
14 | C#CC(=O)Nc1cccc(-c2cc(NC(=O)c3cc4ncc(C(=O)O)nc4s3)[nH]n2)c1 [DM009] | 7 | 8.15
15 | C#CC(=O)Nc1cccc(-c2cc(NC(=O)c3cc4ncc(C(N)=O)nc4s3)[nH]n2)c1 [DM010] | 10 | 8
